{"source": "patent US10456366B2", "about": "“Composition and methods for tissue regeneration” (Chiou Consulting, Inc., priority 2017, dated 2019)", "origin": "cited, not measured here", "key": {"rats": {"system": "rats", "settings": "water containing 10% of PG, two years"}, "dogs": {"system": "dogs", "settings": "food containing 8% of PG, two years"}}}
{"smiles": "CC(O)CO", "note": "(centres unmarked) [PG, propylene glycol]", "values": [{"measurement": "adverse effects on feeding", "setting": "rats", "result": "no adverse effects"}, {"measurement": "adverse effects on feeding", "setting": "dogs", "result": "no adverse effects"}]}
